The test system of data set [1] is Mycobacterium tuberculosis. Briefly: Antimycobacterial activity against Mycobacterium tuberculosis CNCTC My 331/88 after 14 days by microdilution method. The data set is classed as functional. The settings on record: CNCTC My 331/88, 336 h.
In data set [2] the test system is Mycobacterium avium. Put plainly: Antimycobacterial activity against Mycobacterium avium CNCTC My 330/88 after 14 days by microdilution method. It is filed as functional. The settings on record: CNCTC My 330/88, 336 h.
Data set [3] deals with Mycobacterium kansasii. Put plainly: Antimycobacterial activity against Mycobacterium kansasii CNCTC My 235/80 after 14 days by microdilution method. The data set is classed as functional. Conditions: CNCTC My 235/80, 336 h. (In general: Dilution methods test growth across graded concentrations, often in twofold steps.)
The test system of data set [4] is Mycobacterium kansasii. Briefly: Antimycobacterial activity against Mycobacterium kansasii CNCTC My 6509/96 after 14 days by microdilution method. It is filed as functional. Conditions: CNCTC My 6509/96, 336 h; call rule not given here.
For data set [5], the system named is Mycobacterium tuberculosis. Briefly: Antimycobacterial activity against Mycobacterium tuberculosis CNCTC My 331/88 after 21 days by microdilution method. The data set is classed as functional. The settings on record: CNCTC My 331/88, 504 h.
Data set [6] relates to Mycobacterium avium. Briefly: Antimycobacterial activity against Mycobacterium avium CNCTC My 330/88 after 21 days by microdilution method. It is filed as functional. The settings on record: CNCTC My 330/88, 504 h.
In data set [7] the test system is Mycobacterium kansasii. Put plainly: Antimycobacterial activity against Mycobacterium kansasii CNCTC My 235/80 after 21 days by microdilution method. It is filed as functional. The settings on record: CNCTC My 235/80, 504 h.
The subject of data set [8] is Mycobacterium kansasii. Briefly: Antimycobacterial activity against Mycobacterium kansasii CNCTC My 6509/96 after 21 days by microdilution method. The data set is classed as functional. The settings on record: CNCTC My 6509/96, 504 h.
The subject of data set [9] is Mycobacterium kansasii. Put plainly: Antimycobacterial activity against Mycobacterium kansasii CNCTC My 235/80 after 7 days by microdilution method. It is filed as functional. The settings on record: CNCTC My 235/80, 168 h.
Data set [10] concerns Mycobacterium kansasii. Put plainly: Antimycobacterial activity against Mycobacterium kansasii CNCTC My 6509/96 after 7 days by microdilution method. It is filed as functional. The settings on record: CNCTC My 6509/96, 168 h.
A short description of data set [11]: Cytotoxicity against human HuH7 cells assessed as cell viability after 24 hrs by MTS assay. It is filed as cell-based. Conditions: Huh-7, 24 h. (Tetrazolium dyes change colour on reduction, which living cells bring about.)
In data set [12] the test system is HeLa. Put plainly: Cytotoxicity against human HeLa cells assessed as cell viability after 24 hrs by MTS assay. The data set is classed as cell-based.
Data set [13] is described as follows: Cytotoxicity against MDCK2-MDR1 cells assessed as cell viability after 24 hrs by MTS assay. The data set is classed as ADME, cell-based. The settings on record: Canis lupus familiaris, MDCK-II.
Data set [14] is described as follows: Cytotoxicity against MDCK2-MDR1 cells assessed as cell viability after 48 hrs by MTS assay. It is filed as ADME, cell-based. Conditions: Canis lupus familiaris, MDCK-II.
Data set [15] is described as follows: Cytotoxicity against human HuH7 cells assessed as cell viability at 20 uM after 24 hrs by MTS assay. The data set is classed as cell-based, Huh-7. Conditions: read-out: Activity.
Data set [16] in a line: Cytotoxicity against human HuH7 cells assessed as cell viability at 20 uM after 48 hrs by MTS assay. The data set is classed as cell-based, Huh-7. The settings on record: read-out: Activity.
Data set [17] can be described thus: Cytotoxicity against human HeLa cells assessed as cell viability at 20 uM after 24 hrs by MTS assay. The data set is classed as cell-based. The settings on record: read-out: Activity.
Data set [18] is described as follows: Cytotoxicity against human HeLa cells assessed as cell viability at 20 uM after 48 hrs by MTS assay. It is filed as cell-based. The settings on record: read-out: Activity.
Data set [19] can be described thus: Cytotoxicity against MDCK2-MDR1 cells assessed as cell viability at 20 uM after 24 hrs by MTS assay. The settings on record: dog, read-out: Activity. It is filed as ADME, cell-based, Canis lupus familiaris, MDCK-II.
Data set [20] is described as follows: Cytotoxicity against MDCK2-MDR1 cells assessed as cell viability at 20 uM after 48 hrs by MTS assay. The data set is classed as ADME, cell-based, Canis lupus familiaris, MDCK-II. The settings on record: dog, read-out: Activity.
In data set [21] the test system is Salmonella typhimurium. Briefly: Mutagenic activity in Salmonella typhimurium TA100 assessed as reverse mutation at 30 uM by Ames test. The data set is classed as toxicity, organism-based. Conditions: salmonella enterica subsp. enterica serovar typhimurium. A general note: In the Ames test, an excess of revertant colonies over the control signals mutagenicity.

Data set [22] deals with Salmonella typhimurium. Briefly: Mutagenic activity in Salmonella typhimurium TA98 assessed as reverse mutation at 30 uM by Ames test. It is filed as toxicity, organism-based. Conditions: salmonella enterica subsp. enterica serovar typhimurium.
The test system of data set [23] is HeLa. Briefly: Cytotoxicity against human HeLa cells assessed as cell viability after 48 hrs by MTS assay. The data set is classed as cell-based.
The subject of data set [24] is Candida albicans. Put plainly: Antifungal activity against Candida albicans ATCC 44859 after 24 to 48 hrs by broth microdilution method. The data set is classed as functional.
Data set [25] concerns Candida tropicalis. Briefly: Antifungal activity against Candida tropicalis 156 after 24 to 48 hrs by broth microdilution method. The data set is classed as functional.
Data set [26] has as its system Pichia kudriavzevii. Briefly: Antifungal activity against Candida krusei E28 after 24 to 48 hrs by broth microdilution method. The data set is classed as functional.
Data set [27] deals with Nakaseomyces glabratus. Briefly: Antifungal activity against Candida glabrata 20/I after 24 to 48 hrs by broth microdilution method. It is filed as functional.
Data set [28] concerns Trichosporon asahii. Put plainly: Antifungal activity against Trichosporon asahii 1188 after 24 to 48 hrs by broth microdilution method. It is filed as functional.
The subject of data set [29] is Aspergillus fumigatus. Briefly: Antifungal activity against Aspergillus fumigatus 231 after 24 to 48 hrs by broth microdilution method. It is filed as functional.
In data set [30] the test system is Lichtheimia corymbifera. Put plainly: Antifungal activity against Absidia corymbifera 272 after 24 to 48 hrs by broth microdilution method. The data set is classed as functional.
Data set [31] concerns Trichophyton mentagrophytes. Briefly: Antifungal activity against Trichophyton mentagrophytes 445 after 72 to 120 hrs by broth microdilution method. It is filed as functional.
Data set [32] has as its system Staphylococcus aureus. Put plainly: Antibacterial activity against Staphylococcus aureus ATCC 6538 after 24 to 48 hrs by broth microdilution method. It is filed as functional.
The subject of data set [33] is Staphylococcus aureus. Briefly: Antibacterial activity against methicillin-resistant Staphylococcus aureus H 5996/08 after 24 to 48 hrs by broth microdilution method. The data set is classed as functional.
Data set [34] has as its system Staphylococcus epidermidis. Put plainly: Antibacterial activity against Staphylococcus epidermidis H 6966/08 after 24 to 48 hrs by broth microdilution method. It is filed as functional.
The test system of data set [35] is Enterococcus faecalis. Briefly: Antibacterial activity against Enterococcus faecalis J 14365/08 after 24 to 48 hrs by broth microdilution method. The data set is classed as functional.
In data set [36] the test system is Escherichia coli. Put plainly: Antibacterial activity against Escherichia coli ATCC 8739 after 24 to 48 hrs by broth microdilution method. The data set is classed as functional.
The subject of data set [37] is Klebsiella pneumoniae. Briefly: Antibacterial activity against Klebsiella pneumoniae D 11750/08 after 24 to 48 hrs by broth microdilution method. It is filed as functional.
The subject of data set [38] is Klebsiella pneumoniae. Briefly: Antibacterial activity against ESBL producing Klebsiella pneumoniae J 14368/08 after 24 to 48 hrs by broth microdilution method. It is filed as functional.
Data set [39] relates to Pseudomonas aeruginosa. Put plainly: Antibacterial activity against Pseudomonas aeruginosa ATCC 9027 after 24 to 48 hrs by broth microdilution method. The data set is classed as functional.

Each structure is given as a SMILES string. ≈ marks a conversion by molar mass, not a printed value. Bounds are passed on as bounds.

A word on the MIC99: it is the lowest concentration that inhibits either 99% of growth or 99% of the strains tested, depending on the study. The term IC50 denotes the point on the concentration scale where inhibition reaches its midpoint. With `O=[N+]([O-])c1cc(CSc2nnc(-c3cccc(Cl)c3)o2)cc([N+](=O)[O-])c1`, the MIC99 in [1] was not above 0.03 µM; in [2], 16 µM (≈ 6.28 µg/mL); in [3], 0.25 µM (≈ 0.0982 µg/mL); in [4], 0.5 µM (≈ 0.196 µg/mL); in data set [5], 0.06 µM (≈ 0.0236 µg/mL); in data set [6], 16 µM (≈ 6.28 µg/mL). Besides, the MIC99 in data set [7] turned out to be 0.5 µM (≈ 0.196 µg/mL); in [8] it was 1 µM (≈ 0.393 µg/mL); in [9] it was 0.125 µM (≈ 0.0491 µg/mL); in data set [10], 0.125 µM (≈ 0.0491 µg/mL). The IC50 in data set [11], in [12], in [13] and in [14] was more than 20 µM throughout. For the same compound, the viability at 24 h, 20 µM in data set [15] is 97.9%; in data set [17], 81.9%; in [19], 93.3%. The viability at 48 h, 20 µM in data set [16] was found to be 45.9%; in data set [18], 34.6%; in [20], 57.9%. The Activity result in data set [21] and in data set [22] was “Non-toxic” throughout.
Regarding `O=[N+]([O-])c1cc(CSc2nnc(-c3cccc(Cl)c3)s2)cc([N+](=O)[O-])c1`, the MIC99 in data set [1] is 0.125 µM (≈ 0.0511 µg/mL); in data set [2], 8 µM (≈ 3.27 µg/mL); in data set [3], 1 µM (≈ 0.409 µg/mL); in data set [4], 0.5 µM (≈ 0.204 µg/mL); in data set [5], 0.125 µM (≈ 0.0511 µg/mL); in data set [6] it was 16 µM (≈ 6.54 µg/mL). In addition, the MIC99 in data set [7] stood at 1 µM (≈ 0.409 µg/mL); in data set [8] it was 0.5 µM (≈ 0.204 µg/mL); in data set [9] it was 0.25 µM (≈ 0.102 µg/mL); in data set [10], 0.25 µM (≈ 0.102 µg/mL). The concentration for half-maximal inhibition (IC50) in [11] was more than 20 µM; in data set [12] it was more than 20 µM; in data set [23], 2.6 µM; in data set [13], more than 20 µM. Moreover, the viability at 24 h, 20 µM stood at 90.7% in data set [15], 78.6% in data set [17] and 108% in data set [19]. For the same compound, the viability at 48 h, 20 µM turned out to be 32.8% in [16], 16.8% in data set [18] and 48.6% in [20].
For `O=[N+]([O-])c1ccc2c(c1)Cc1ccccc1-2` [2-NITROFLUORENE], the Activity result in data set [22] is listed as “Toxic”.
One may read the MIC80 as an inhibitory concentration at the 80% level, which refers to growth in some studies and to a panel of isolates in others. For orientation: MIC50 means an inhibitory concentration at the 50% level, which refers to growth in some studies and to a panel of isolates in others. Read a high MIC50 as lower susceptibility. In the case of `COc1cccc(-c2nnc(SCc3cc([N+](=O)[O-])cc([N+](=O)[O-])c3)o2)c1`, the MIC99 in data set [1] worked out at 0.125 µM (≈ 0.0485 µg/mL); in [2] it was 16 µM (≈ 6.21 µg/mL); in data set [3] it was 0.25 µM (≈ 0.0971 µg/mL); in data set [4], 0.5 µM (≈ 0.194 µg/mL); in data set [5], 0.125 µM (≈ 0.0485 µg/mL); in [6], 16 µM (≈ 6.21 µg/mL). Moreover, the MIC99 in [7] stood at 0.5 µM (≈ 0.194 µg/mL); in data set [8], 1 µM (≈ 0.388 µg/mL); in [9], 0.125 µM (≈ 0.0485 µg/mL); in data set [10] it was 0.125 µM (≈ 0.0485 µg/mL). Moreover, the IC50 in [11] was more than 20 µM; in [12], more than 20 µM; in data set [23], 4.1 µM; in [13] it was more than 20 µM. The figures for the viability at 24 h, 20 µM in data set [15], in data set [17] and in data set [19] were 89.6%, 74.2% and 105%, respectively. For the same compound, the viability at 48 h, 20 µM in data set [16] came out at 47%; in [18] it was 16.4%; in data set [20], 10.5%. Besides, the Activity result in data set [21] and in data set [22] was “Non-toxic” each time. The MIC80 in data set [24], in [25], in [26], in data set [27] and in data set [28] was more than 125 µM throughout. Moreover, the MIC50 in [29], in [30] and in [31] was more than 125 µM in each case. The MIC95 in [32], in data set [33], in data set [34], in [35], in data set [36] and in data set [37] was more than 125 µM in each case. Besides, the MIC95 in data set [38] and in data set [39] was more than 125 µM in each case.

Values taken from ChEMBL document CHEMBL3797190, “Development of 3,5-Dinitrobenzylsulfanyl-1,3,4-oxadiazoles and Thiadiazoles as Selective Antitubercular Agents Active Against Replicating and Nonreplicating Mycobacterium tuberculosis” (J Med Chem, 2016).
